{"source": "paper PMC10607100", "about": "“Anticancer and Antiphytopathogenic Activity of Fluorinated Isatins and Their Water-Soluble Hydrazone Derivatives” (International Journal of Molecular Sciences, 2023)", "key": {"[1]": {"tested_on": "Xanthomonas campestris B-610", "test": "Agar-well diffusion, bactericidal activity", "format": "cell-based", "settings": "Xanthomonas campestris", "procedure,_shortened": "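Agar-well diffusion on GYCa agar (pH 7.2–7.4) seeded with bacterial suspension; 150 μL compound solution placed in 6-mm wells. Inhibition zone width measured after 36–40 h incubation.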"}, "[2]": {"tested_on": "five representative phytopathogens", "test": "Agar-well diffusion, bactericidal activity over the panel of phytopathogens", "format": "cell-based", "settings": "36 h, 2 mM solutions; dependent on the test system used; read-out: inhibition zone width (mm), range over the test systems", "procedure,_shortened": "(§1)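 Bacteria spread on agar (BP medium; GYCa for X. campestris; pH 7.2–7.4) with 6-mm wells, each receiving 150 μL compound solution. Cultures grown at 28 °C; growth-inhibition zone width measured after 36–40 h.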"}, "[3]": {"tested_on": "Pectobacterium carotovorum subsp. carotovorum MI", "test": "Agar-well diffusion, bactericidal activity", "format": "cell-based", "settings": "Pectobacterium carotovorum, 2 mM/L", "procedure,_shortened": "as §1"}, "Micrococcus luteus B-109": {"tested_on": "Micrococcus luteus B-109", "test": "Agar-well diffusion, bactericidal activity", "format": "cell-based", "settings": "Micrococcus luteus, B109, 2 mM/L; average of 3 experiments; read-out: width of the inhibition zone (mm), M. luteus", "procedure,_shortened": "as §1"}, "[4]": {"tested_on": "Pseudomonas fluorescens EL-2.1", "test": "Agar-well diffusion, bactericidal activity", "format": "cell-based", "settings": "Pseudomonas fluorescens, EL2.1, 2 mM/L", "procedure,_shortened": "as §1"}, "[5]": {"tested_on": "Pectobacterium atrosepticum 1043", "test": "Agar-well diffusion, bactericidal activity", "format": "cell-based", "settings": "Pectobacterium atrosepticum, 1043, 2 mM/L", "procedure,_shortened": "as §1"}, "[6]": {"tested_on": "Phytophthora cactorum VKM F-985", "test": "Mycelial radial growth inhibition", "format": "cell-based", "settings": "for inhibition of growth at 3 µM: 3 nmol/mL; for inhibition of growth at 3 µM / inhibition of growth at 7 µM / inhibition of growth / inhibition of growth at 40 µM: read-out: Inhibition value, I (%); for inhibition of growth at 7 µM: 7 nmol/mL; for inhibition of growth: 27 nmol/mL; for inhibition of growth at 40 µM: 40 nmol/mL", "procedure,_shortened": "(§2)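 Compounds mixed into molten GPY agar at various concentrations; centre inoculated with a 5-mm mycelial plug from 10-day cultures and incubated at 27 °C. Colony diameter compared with untreated control until control plate was covered (usually 12 days); ≥4 replicates in two experiments.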"}, "[7]": {"tested_on": "Fusarium oxysporum IBPPM 543", "test": "Mycelial radial growth inhibition", "format": "cell-based", "settings": "Fusarium oxysporum; for inhibition of growth at 1 µM: 1 nmol/mL; for inhibition of growth at 1 µM / inhibition of growth at 5 µM / inhibition of growth at 20 µM / inhibition of growth at 40 µM: read-out: Inhibition value, I (%); for inhibition of growth at 5 µM: 5 nmol/mL; for inhibition of growth at 20 µM: 20 nmol/mL; for inhibition of growth at 40 µM: 40 nmol/mL", "procedure,_shortened": "as §2"}, "[8]": {"settings": "Table S3, read-out: Inhibition zone width (mm), not less"}, "[9]": {"settings": "Phytophthora cactorum, 72 h, age of the fungus 3 days"}, "[10]": {"settings": "Phytophthora cactorum, 120 h, age of the fungus 5 days"}, "[11]": {"settings": "Phytophthora cactorum, 168 h, age of the fungus 7 days"}, "[12]": {"settings": "Phytophthora cactorum, 216 h, age of the fungus 9 days"}, "[13]": {"settings": "IBPPM543, 72 h, age of the fungus 3 days"}, "[14]": {"settings": "IBPPM543, 120 h, age of the fungus 5 days"}, "[15]": {"settings": "IBPPM543, 168 h, age of the fungus 7 days"}, "[16]": {"settings": "IBPPM543, 216 h, age of the fungus 9 days"}}, "note": "Read-outs that look alike come from different tables or passages of the source."}
{"smiles": "O=C(C[n+]1ccccc1)NN=C1C(=O)N(Cc2cccc(C(F)(F)F)c2)c2ccc(F)cc21.[Cl-]", "note": "[Compound 5c, 1-(2-(2-(5-Fluoro-2-oxo-1-(3-(trifluoromethyl)benzyl)indolin-3-ylidene)hydrazinyl)-2-oxoethyl)pyridin-1-ium chloride]", "values": [{"measurement": "zone of inhibition at 2000 µM", "setting": "[1]; B610, 2 mM/L, average of 3 experiments, read-out: width of the inhibition zone (mm), X. campestris", "value": 7, "unit": "mm"}, {"measurement": "zone of inhibition at 2000 µM", "setting": "[1]; B610, Table S3, 2 mM/L, read-out: Inhibition zone width (mm), not less", "value": "≥ 7", "unit": "mm"}, {"measurement": "zone of inhibition at 2000 µM", "setting": "[2]", "value": "4 to 7", "unit": "mm"}, {"measurement": "zone of inhibition at 2000 µM", "setting": "[3]; average of 3 experiments, read-out: width of the inhibition zone (mm), P. carotovorum subsp. carotovorum", "value": 5, "unit": "mm"}, {"measurement": "zone of inhibition at 2000 µM", "setting": "[3]; [8]", "value": "≥ 5", "unit": "mm"}, {"measurement": "zone of inhibition at 2000 µM", "setting": "Micrococcus luteus B-109", "value": 4, "unit": "mm"}, {"measurement": "zone of inhibition at 2000 µM", "setting": "[4]; average of 3 experiments, read-out: width of the inhibition zone (mm), Ps. fluorescens", "value": 5, "unit": "mm"}, {"measurement": "zone of inhibition at 2000 µM", "setting": "[4]; [8]", "value": "≥ 5", "unit": "mm"}, {"measurement": "zone of inhibition at 2000 µM", "setting": "[5]; average of 3 experiments, read-out: width of the inhibition zone (mm), P. atrosepticum", "value": 5, "unit": "mm"}, {"measurement": "zone of inhibition at 2000 µM", "setting": "[5]; [8]", "value": "≥ 5", "unit": "mm"}, {"measurement": "antagonistic effect superior to that of N-cetylpyridinium chloride", "setting": "[6]; 5 days of growth", "value": 2.3, "unit": "times"}, {"measurement": "inhibition of growth at 3 µM", "setting": "[6]; [9]", "value": 7, "unit": "%"}, {"measurement": "inhibition of growth at 7 µM", "setting": "[6]; [9]", "value": 13, "unit": "%"}, {"measurement": "inhibition of growth", "setting": "[6]; [9]", "value": 36, "unit": "%"}, {"measurement": "inhibition of growth at 40 µM", "setting": "[6]; [9]", "value": 55, "unit": "%"}, {"measurement": "EC50", "setting": "[6]; Phytophthora cactorum, 120 h, day 5, read-out: EC50, µg/mL at Day 5, P. cactorum", "value": 15, "unit": "µg/mL"}, {"measurement": "inhibition of growth at 3 µM", "setting": "[6]; [10]", "value": 8, "unit": "%"}, {"measurement": "inhibition of growth at 7 µM", "setting": "[6]; [10]", "value": 21, "unit": "%"}, {"measurement": "inhibition of growth", "setting": "[6]; [10]", "value": 38, "unit": "%"}, {"measurement": "inhibition of growth at 40 µM", "setting": "[6]; [10]", "value": 64, "unit": "%"}, {"measurement": "inhibition of growth at 3 µM", "setting": "[6]; [11]", "value": 4, "unit": "%"}, {"measurement": "inhibition of growth at 7 µM", "setting": "[6]; [11]", "value": 14, "unit": "%"}, {"measurement": "inhibition of growth", "setting": "[6]; [11]", "value": 29, "unit": "%"}, {"measurement": "inhibition of growth at 40 µM", "setting": "[6]; [11]", "value": 42, "unit": "%"}, {"measurement": "inhibition of growth at 3 µM", "setting": "[6]; [12]", "value": 3, "unit": "%"}, {"measurement": "inhibition of growth at 7 µM", "setting": "[6]; [12]", "value": 12, "unit": "%"}, {"measurement": "inhibition of growth", "setting": "[6]; [12]", "value": 18, "unit": "%"}, {"measurement": "inhibition of growth at 40 µM", "setting": "[6]; [12]", "value": 36, "unit": "%"}, {"measurement": "EC50, µg/mL at Day 5, P. cactorum", "setting": "[6]; day 5", "value": 15.40, "unit": "µg/mL"}, {"measurement": "inhibition of growth at 1 µM", "setting": "[7]; [13]", "value": 22, "unit": "%"}, {"measurement": "inhibition of growth at 5 µM", "setting": "[7]; [13]", "value": 40, "unit": "%"}, {"measurement": "inhibition of growth at 20 µM", "setting": "[7]; [13]", "value": 49, "unit": "%"}, {"measurement": "inhibition of growth at 40 µM", "setting": "[7]; [13]", "value": 57, "unit": "%"}, {"measurement": "EC50", "setting": "[7]; IBPPM543, 120 h, day 5, read-out: EC50, µg/mL at Day 5, F. oxysporum", "value": 14.9, "unit": "µg/mL"}, {"measurement": "inhibition of growth at 1 µM", "setting": "[7]; [14]", "value": 19, "unit": "%"}, {"measurement": "inhibition of growth at 5 µM", "setting": "[7]; [14]", "value": 36, "unit": "%"}, {"measurement": "inhibition of growth at 20 µM", "setting": "[7]; [14]", "value": 45, "unit": "%"}, {"measurement": "inhibition of growth at 40 µM", "setting": "[7]; [14]", "value": 55, "unit": "%"}, {"measurement": "inhibition of growth at 1 µM", "setting": "[7]; [15]", "value": 13, "unit": "%"}, {"measurement": "inhibition of growth at 5 µM", "setting": "[7]; [15]", "value": 28, "unit": "%"}, {"measurement": "inhibition of growth at 20 µM", "setting": "[7]; [15]", "value": 35, "unit": "%"}, {"measurement": "inhibition of growth at 40 µM", "setting": "[7]; [15]", "value": 52, "unit": "%"}, {"measurement": "inhibition of growth at 1 µM", "setting": "[7]; [16]", "value": 3, "unit": "%"}, {"measurement": "inhibition of growth at 20 µM", "setting": "[7]; [16]", "value": 21, "unit": "%"}, {"measurement": "inhibition of growth at 40 µM", "setting": "[7]; [16]", "value": 51, "unit": "%"}, {"measurement": "melting point", "value": "172 to 173", "unit": "°C"}]}
